Test results taken from US20240299348A1, “MODULATORS OF TRPML, THEIR COMPOSITIONS AND METHODS OF USE” (Caraway Therapeutics, Inc., priority 2021, published 2024).

How the values were obtained:
Assay type in all cases: cell-based
hTRPML3 = molecular target: T1, hTRPML3 (Homo sapiens, UniProt Q8TDD5); assay: TRPML3 fluorescent (Fluo-4) assay; conditions: activation; read-out: Secondary Screening: Fluo-4: hTRPML3: EC50
T1 construct: expressed in transfected cells; host or cells: HEK-293 Trex (by analogy, 'performed as above')
T1 sequence (Q8TDD5 1-553): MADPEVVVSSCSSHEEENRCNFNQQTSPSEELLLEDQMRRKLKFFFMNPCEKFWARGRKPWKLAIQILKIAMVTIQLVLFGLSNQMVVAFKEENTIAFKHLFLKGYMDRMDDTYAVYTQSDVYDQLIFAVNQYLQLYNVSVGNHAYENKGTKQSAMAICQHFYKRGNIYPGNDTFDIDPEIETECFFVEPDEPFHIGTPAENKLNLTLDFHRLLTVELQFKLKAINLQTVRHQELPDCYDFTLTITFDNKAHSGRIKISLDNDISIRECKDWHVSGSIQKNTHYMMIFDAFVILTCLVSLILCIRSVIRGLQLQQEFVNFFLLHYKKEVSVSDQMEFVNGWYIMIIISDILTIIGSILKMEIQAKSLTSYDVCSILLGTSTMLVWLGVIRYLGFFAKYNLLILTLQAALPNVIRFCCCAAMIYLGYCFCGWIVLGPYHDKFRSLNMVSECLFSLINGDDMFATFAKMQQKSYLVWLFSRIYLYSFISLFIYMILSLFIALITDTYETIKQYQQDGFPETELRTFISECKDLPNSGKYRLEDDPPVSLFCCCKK
Protocol: (§1) Assays for TRPML2 and TRPML3 were performed as above for TRPML1, by substituting the appropriate TRPML2 or TRPML3 subtype for the TRPML1.
(§2) EC50 values were calculated using a non-linear regression of Prism.

hTRPML1 = hTRPML1 (Homo sapiens, UniProt Q9GZU1); assay: TRPML1 fluorescent (Fluo-4) assay; parameters: Secondary Screening: Fluo-4: hTRPML1: EC50 (M); HEK-293 Trex cells expressing hTRPML1; conditions: activation; HEK-293 Trex cells expressing hTRPML1; read-out: Secondary Screening: Fluo-4: hTRPML1: EC50
Protocol: HEK-293 Trex cells were stably transfected with a construct consisting of the human coding sequence for TRPML1 cloned into the […] plasmid pCDNA5 T/O. Mutations were introduced into the TRPML1 sequence to facilitate expression on the cell surface (Silvia Vergarajauregui, Rosa Puertollano Traffic. 2006 March; 7(3): 337-353). Briefly, the cells are cultured in 150 mm round tissue culture dishes containing 20 mL of media. The day before the assay the cells are rinsed with DPBS—Ca—Mg and then treated briefly with Trypsin-EDTA. The Trypsin-EDTA is diluted with growth media, and cells are counted. 38×10^6 cells are re-plated into 150 mm round tissue culture dishes in media containing 0.5 ug/mL doxycycline to induce expression of hTRPML1.
The day of the experiment cells are lifted from the plates as above and collected by centrifugation. The cells are then suspended in dye loading buffer consisting of Ringer's solution supplemented with 0.1% Pluronic Acid and 1 micromolar Fluo4-AM dye. Cells are loaded for ˜60 minutes in the dark with occasional mixing. The cells are collected by centrifugation, the loading media aspirated, and the cells resuspended in 25 mL Ringer's solution and incubated ˜60 minutes in the dark. The cells are again collected by centrifugation, rinsed in Ringer's Solution and resuspended to 0.2×10^6 cells/mL in modified Ringer's solution containing 10 mM calcium.
Compounds are dissolved to a concentration of 10 millimolar with DMSO. Compound plates are created by dispensing compounds into 384 well black wall clear bottom plates (Greiner 781091). Positive and negative controls are included on each plate. Typically, different amounts of each compound are tested ranging from 100 nanoMoles (20 micromolar final concentration) decreasing in half-log steps to 31 picoMoles (6 nanomolar final concentration). Each concentration is typically tested in triplicate.
50 microliters of dye-loaded cells are dispensed into each well of the compound assay plate created above. The fluorescence in each well is then determined with an excitation wavelength of 480 nm and an emission wavelength of 540 nm using either a Molecular Devices SpectraMax multimode plate reader or a Hamamatsu FDSS/uCell plate imager.
The resulting fluorescence for each well is exported as an ascii file and loaded into our LIMS for analysis. The percent activity of each compound at each concentration is determined by comparison to the positive and negative control wells included in each plate.
as §2

hTRPML2 = molecular target: T2, hTRPML2 (Homo sapiens, UniProt Q8IZK6); assay: TRPML2 fluorescent (Fluo-4) assay; conditions: activation; read-out: Secondary Screening: Fluo-4: hTRPML2: EC50
T2 construct: expressed in transfected cells; host or cells: HEK-293 Trex (by analogy, 'performed as above')
T2 sequence (Q8IZK6 1-566): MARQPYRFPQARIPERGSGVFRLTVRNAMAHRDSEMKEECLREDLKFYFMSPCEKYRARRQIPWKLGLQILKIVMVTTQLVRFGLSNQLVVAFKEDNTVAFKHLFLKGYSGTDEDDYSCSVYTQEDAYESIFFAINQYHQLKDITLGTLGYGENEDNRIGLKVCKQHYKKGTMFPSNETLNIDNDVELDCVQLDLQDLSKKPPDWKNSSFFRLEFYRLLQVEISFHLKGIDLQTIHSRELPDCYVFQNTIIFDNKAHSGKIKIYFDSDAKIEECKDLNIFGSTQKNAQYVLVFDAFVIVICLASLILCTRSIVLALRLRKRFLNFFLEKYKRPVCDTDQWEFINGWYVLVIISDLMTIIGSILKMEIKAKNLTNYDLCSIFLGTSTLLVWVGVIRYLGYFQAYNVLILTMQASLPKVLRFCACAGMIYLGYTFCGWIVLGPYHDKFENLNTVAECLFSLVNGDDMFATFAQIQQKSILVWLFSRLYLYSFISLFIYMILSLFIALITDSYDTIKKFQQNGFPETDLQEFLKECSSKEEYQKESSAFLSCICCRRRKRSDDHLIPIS
Protocol: as §1, §2

hTRPML1, sequence (Q9GZU1 whole entry L15A/L16A/L577A/L578A, form open): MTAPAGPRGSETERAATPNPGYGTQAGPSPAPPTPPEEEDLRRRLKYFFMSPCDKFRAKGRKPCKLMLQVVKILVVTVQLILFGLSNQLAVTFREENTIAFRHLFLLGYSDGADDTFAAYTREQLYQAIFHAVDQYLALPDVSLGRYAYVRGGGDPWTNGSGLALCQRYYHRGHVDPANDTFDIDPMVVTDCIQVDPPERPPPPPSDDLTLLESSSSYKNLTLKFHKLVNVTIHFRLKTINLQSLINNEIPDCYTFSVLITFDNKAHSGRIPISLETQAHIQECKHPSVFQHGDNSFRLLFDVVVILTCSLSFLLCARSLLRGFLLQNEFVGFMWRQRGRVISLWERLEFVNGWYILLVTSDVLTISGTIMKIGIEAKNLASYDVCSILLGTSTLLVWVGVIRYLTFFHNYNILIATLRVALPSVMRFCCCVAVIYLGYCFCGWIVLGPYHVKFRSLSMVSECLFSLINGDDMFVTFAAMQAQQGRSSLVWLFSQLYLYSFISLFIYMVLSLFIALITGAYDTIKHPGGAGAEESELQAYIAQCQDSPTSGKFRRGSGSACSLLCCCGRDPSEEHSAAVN

SMILES | EC50 (hTRPML3) | EC50 (hTRPML1) | EC50 (hTRPML2)
CN(C)S(=O)(=O)c1ccc(S(=O)(=O)Nc2ccccc2C2CCN(c3ccc(Cl)cc3F)CC2)cc1 [Compound 108, N^1-(2-(1-(4-chloro-2-fluorophenyl)piperidin-4-yl)phenyl)-N^4,N^4-dimethylbenzene-1,4-disulfonamide] | 300 to 1000 nM | 1000 to 5000 nM | –
CN(C)S(=O)(=O)c1ccc(S(=O)(=O)Nc2ccccc2N2C[C@H]3C[C@@H]2CN3c2ccc(Cl)cc2F)cc1 [Compound 107, N^1-(2-((1R,4R)-5-(4-chloro-2-fluorophenyl)-2,5-diazabicyclo[2.2.1]heptan-2-yl)phenyl)-N^4,N^4-dimethylbenzene-1,4-disulfonamide] | – | 300 to 1000 nM | –
CN(c1ccc(Cl)cc1F)C1CCN(c2ccccc2NS(=O)(=O)c2ccc(S(=O)(=O)N(C)C)cc2)C1 (stereo not shown) [Compound 104, N^1-(2-(3-((4-chloro-2-fluorophenyl)(methyl)amino)pyrrolidin-1-yl)phenyl)-N^4,N^4-dimethylbenzene-1,4-disulfonamide] | – | < 300 nM | –
CN(c1ccccc1NS(=O)(=O)c1ccc(S(=O)(=O)N(C)C)cc1)C1CCN(C(=O)OC(C)(C)C)C1 (stereo not shown) [Compound 114, tert-butyl 3-((2-((4-(N,N-dimethylsulfamoyl)phenyl)sulfonamido)phenyl)(methyl)amino)pyrrolidine-1-carboxylate] | 300 to 1000 nM | 1000 to 5000 nM | –
CN(C)S(=O)(=O)c1ccc(S(=O)(=O)N[C@@H]2CCCCC[C@@H]2N2CCN(c3ccc(Cl)cc3F)CC2)cc1 (relative stereo) [Compound 122, Cis-N^1-(2-(4-(4-chloro-2-fluorophenyl)piperazin-1-yl)cycloheptyl)-N^4,N^4-dimethylbenzene-1,4-disulfonamide] | 300 to 1000 nM | < 300 nM | 1000 to 5000 nM
CN(C)S(=O)(=O)c1ccc(S(=O)(=O)Nc2ccccc2N2CCN(C34CC(C3)C4)CC2)cc1 [Compound 115, N^1-(2-(4-(bicyclo[1.1.1]pentan-1-yl)piperazin-1-yl)phenyl)-N^4,N^4-dimethylbenzene-1,4-disulfonamide] | 300 to 1000 nM | 1000 to 5000 nM | –
Cc1ccc(S(=O)(=O)N[C@H]2CCCC[C@@H]2N2CCN(c3ccc(Cl)cc3F)CC2)cc1 (relative stereo) [Compound 117, trans-N-(2-(4-(4-chloro-2-fluoro-phenyl)piperazin-1-yl)cyclohexyl)-4-methylbenzene-sulfonamide] | < 300 nM | 300 to 1000 nM | –
CN(c1ccccc1NS(=O)(=O)c1ccc(S(=O)(=O)N(C)C)cc1)[C@H]1CCN(c2ccc(Cl)cc2F)C1 [Compound 110, (S)-N^1-(2-((1-(4-chloro-2-fluorophenyl)pyrrolidin-3-yl)(methyl)amino)phenyl)-N^4,N^4-dimethylbenzene-1,4-disulfonamide] | < 300 nM | < 300 nM | –
CN(c1ccccc1NS(=O)(=O)c1ccc(S(=O)(=O)N(C)C)cc1)[C@@H]1CCN(c2ccc(Cl)cc2F)C1 [Compound 111, (R)-N^1-(2-((1-(4-chloro-2-fluorophenyl)pyrrolidin-3-yl)(methyl)amino)phenyl)-N^4,N^4-dimethylbenzene-1,4-disulfonamide] | < 300 nM | 300 to 1000 nM | –
CN(C)S(=O)(=O)c1ccc(S(=O)(=O)N[C@H]2CCCC[C@@H]2N2CCN(c3ccccc3F)CC2)cc1 (relative stereo) [Compound 116, trans-N^1-(2-(4-(2-fluorophenyl)piperazin-1-yl)cyclohexyl)-N^4,N^4-dimethylbenzene-1,4-disulfonamide] | 300 to 1000 nM | 1000 to 5000 nM | –
CN(c1ccccc1NS(=O)(=O)c1ccc(S(=O)(=O)N(C)C)cc1)C1CCN(c2ccccc2F)C1 (stereo not shown) [Compound 112, N^1-(2-((1-(2-Fluorophen-yl)pyrrolidin-3-yl)(meth-yl)amino)phenyl)-N^4,N^4-dimethylbenzene-1,4-disulfonamide] | < 300 nM | 300 to 1000 nM | –
CN(C)S(=O)(=O)c1ccc(S(=O)(=O)N[C@H]2CCCC[C@H]2N2CCN(c3ccc(Cl)cc3F)CC2)cc1 (stereo in doubt) [Compound 109, N^1-((1S,2R)-2-(4-(4-Chloro-2-fluorophenyl)piperazin-1-yl)cyclohexyl)-N^4,N^4-dimethylbenzene-1,4-disulfonamide] | 300 to 1000 nM | 1000 to 5000 nM | –
CN([C@H]1CCN(c2ccc(Cl)cc2F)C1)[C@H]1CCCC[C@@H]1NS(=O)(=O)c1ccc(S(=O)(=O)N(C)C)cc1 (stereo in doubt) [Compound 119, trans-N^1-(2-(((S)-1-(4-chloro-2-fluorophenyl)-pyrrolidin-3-yl)(methyl)-amino)cyclohexyl)-N^4,N^4-dimethylbenzene-1,4-disulfonamide] | – | < 300 nM | > 5000 nM
CN(C)S(=O)(=O)c1ccc(S(=O)(=O)Nc2ccccc2N2CCC3(CCN(c4ccc(Cl)cc4F)C3)C2)cc1 (stereo not shown) [Compound 103, N^1-(2-(7-(4-chloro-2-fluorophenyl)-2,7-diazaspiro[4.4]nonan-2-yl)phenyl)-N^4,N^4-dimethylbenzene-1,4-disulfonamide] | – | 300 to 1000 nM | –
CN(C)S(=O)(=O)c1ccc(S(=O)(=O)Cc2ccccc2N2CCN(c3ccc(Cl)cc3F)CC2)cc1 [Compound 106, 4-(2-(4-(4-Chloro-2-fluorophenyl)piperazin-1-yl)benzylsulfonyl)-N,N-dimethylbenzenesulfonamide] | – | < 300 nM | –
CN(C)S(=O)(=O)c1ccc(S(=O)(=O)N[C@H]2CCCC[C@@H]2N2CCN(c3ccc(Cl)cc3F)CC2)cc1 [Compound 105, N^1-((1S,2S)-2-(4-(4-chloro-2-fluorophenyl)piperazin-1-yl)cyclohexyl)-N^4,N^4-dimethylbenzene-1,4-disulfonamide] | – | 300 to 1000 nM | –
CN(C1CCCC[C@@H]1NS(=O)(=O)c1ccc(S(=O)(=O)N(C)C)cc1)[C@@H]1CCN(c2ccc(Cl)cc2F)C1 (stereo partly drawn) [Compound 118, trans-N^1-(2-(((R)-1-(4-Chloro-2-fluorophenyl)pyrrolidin-3-yl)(methyl)amino)cyclohexyl)-N^4,N^4-dimethylbenzene-1,4-disulfonamide] | – | < 300 nM | > 5000 nM
CN(C)S(=O)(=O)c1ccc(S(=O)(=O)Nc2ccccc2N2CCC3(CN(c4ccc(Cl)cc4F)C3)C2)cc1 [Compound 102, N^1-(2-(2-(4-chloro-2-fluorophenyl)-2,6-diazaspiro[3.4]octan-6-yl)phenyl)-N^4,N^4-dimethylbenzene-1,4-disulfonamide] | – | 300 to 1000 nM | –
